In the NIST ThermoML archive (doi:10.1021/je1002626):
Numbers after ± are expanded uncertainties.

Assays:
[1] = 101.33 kPa, Liquid, Pycnometric method
[2] = wn = mass fraction of the nth substance listed; settings: for surface tension liquid-gas: Ring tensiometer; for mass density: 101.3 kPa, Liquid, Pycnometric method

CNCCO [2-(methylamino)ethanol]
mass density ([1]; 298.15 K): 936.18 ± 1.3 kg/m3 | mass density ([1]; 303.15 K): 932.26 ± 1.3 kg/m3 | mass density ([1]; 313.15 K): 924.42 ± 1.3 kg/m3 | mass density ([1]; 323.15 K): 916.48 ± 1.3 kg/m3

CNCCO [2-(methylamino)ethanol] + O
surface tension liquid-gas ([2]; 298 K, w1 = 0.1): 60.85 ± 0.8 mN/m | surface tension liquid-gas ([2]; 298 K, w1 = 0.2): 56.11 ± 0.77 mN/m | surface tension liquid-gas ([2]; 298 K, w1 = 0.3): 52.51 ± 0.74 mN/m | surface tension liquid-gas ([2]; 298 K, w1 = 0.4): 49.16 ± 0.72 mN/m | mass density ([2]; 298.15 K, w1 = 0.178): 996.31 ± 0.81 kg/m3 | mass density ([2]; 298.15 K, w1 = 1): 936.18 ± 1.1 kg/m3 | surface tension liquid-gas ([2]; 303 K, w1 = 0.1): 60.02 ± 0.8 mN/m | surface tension liquid-gas ([2]; 303 K, w1 = 0.2): 55.28 ± 0.76 mN/m | surface tension liquid-gas ([2]; 303 K, w1 = 0.3): 52.33 ± 0.74 mN/m | surface tension liquid-gas ([2]; 303 K, w1 = 0.4): 48.15 ± 0.71 mN/m | mass density ([2]; 303.15 K, w1 = 0.178): 994.38 ± 0.82 kg/m3 | mass density ([2]; 303.15 K, w1 = 1): 932.26 ± 1.1 kg/m3 | surface tension liquid-gas ([2]; 308 K, w1 = 0.1): 59.5 ± 0.8 mN/m | surface tension liquid-gas ([2]; 308 K, w1 = 0.2): 54.5 ± 0.75 mN/m | surface tension liquid-gas ([2]; 308 K, w1 = 0.3): 51.46 ± 0.73 mN/m | surface tension liquid-gas ([2]; 308 K, w1 = 0.4): 47.2 ± 0.7 mN/m | mass density ([2]; 308.15 K, w1 = 0.178): 993.12 ± 0.82 kg/m3 | surface tension liquid-gas ([2]; 313 K, w1 = 0.1): 58.65 ± 0.78 mN/m | surface tension liquid-gas ([2]; 313 K, w1 = 0.2): 53.42 ± 0.74 mN/m | surface tension liquid-gas ([2]; 313 K, w1 = 0.3): 50.18 ± 0.72 mN/m | surface tension liquid-gas ([2]; 313 K, w1 = 0.4): 46.67 ± 0.7 mN/m | mass density ([2]; 313.15 K, w1 = 0.178): 990.09 ± 0.82 kg/m3 | mass density ([2]; 313.15 K, w1 = 1): 924.42 ± 1.2 kg/m3 | surface tension liquid-gas ([2]; 318 K, w1 = 0.1): 57.66 ± 0.77 mN/m | surface tension liquid-gas ([2]; 318 K, w1 = 0.2): 52.78 ± 0.74 mN/m | surface tension liquid-gas ([2]; 318 K, w1 = 0.3): 49.42 ± 0.71 mN/m | surface tension liquid-gas ([2]; 318 K, w1 = 0.4): 45.72 ± 0.69 mN/m | mass density ([2]; 318.15 K, w1 = 0.178): 988.61 ± 0.83 kg/m3 | surface tension liquid-gas ([2]; 323 K, w1 = 0.1): 56.89 ± 0.77 mN/m | surface tension liquid-gas ([2]; 323 K, w1 = 0.2): 51.79 ± 0.72 mN/m | surface tension liquid-gas ([2]; 323 K, w1 = 0.3): 48.9 ± 0.71 mN/m | surface tension liquid-gas ([2]; 323 K, w1 = 0.4): 44.92 ± 0.68 mN/m | mass density ([2]; 323.15 K, w1 = 0.178): 984.89 ± 0.83 kg/m3 | mass density ([2]; 323.15 K, w1 = 1): 916.48 ± 1.2 kg/m3
